Structures are written as SMILES.

For test [1], the target named is Epidermal growth factor receptor (Homo sapiens) (UniProt P00533). Put plainly: Inhibition of EGFR PTK at 0.01 uM.
For test [2] the target is unchanged. Put plainly: Inhibition of EGFR PTK at 10 uM.
For test [3] the target is unchanged. Put plainly: Inhibition of EGFR PTK at 0.1 uM.
Test [4] has the same target. Nature of the test: Inhibition of EGFR PTK at 1 uM.

Chain of Epidermal growth factor receptor (Homo sapiens) (P00533 whole entry): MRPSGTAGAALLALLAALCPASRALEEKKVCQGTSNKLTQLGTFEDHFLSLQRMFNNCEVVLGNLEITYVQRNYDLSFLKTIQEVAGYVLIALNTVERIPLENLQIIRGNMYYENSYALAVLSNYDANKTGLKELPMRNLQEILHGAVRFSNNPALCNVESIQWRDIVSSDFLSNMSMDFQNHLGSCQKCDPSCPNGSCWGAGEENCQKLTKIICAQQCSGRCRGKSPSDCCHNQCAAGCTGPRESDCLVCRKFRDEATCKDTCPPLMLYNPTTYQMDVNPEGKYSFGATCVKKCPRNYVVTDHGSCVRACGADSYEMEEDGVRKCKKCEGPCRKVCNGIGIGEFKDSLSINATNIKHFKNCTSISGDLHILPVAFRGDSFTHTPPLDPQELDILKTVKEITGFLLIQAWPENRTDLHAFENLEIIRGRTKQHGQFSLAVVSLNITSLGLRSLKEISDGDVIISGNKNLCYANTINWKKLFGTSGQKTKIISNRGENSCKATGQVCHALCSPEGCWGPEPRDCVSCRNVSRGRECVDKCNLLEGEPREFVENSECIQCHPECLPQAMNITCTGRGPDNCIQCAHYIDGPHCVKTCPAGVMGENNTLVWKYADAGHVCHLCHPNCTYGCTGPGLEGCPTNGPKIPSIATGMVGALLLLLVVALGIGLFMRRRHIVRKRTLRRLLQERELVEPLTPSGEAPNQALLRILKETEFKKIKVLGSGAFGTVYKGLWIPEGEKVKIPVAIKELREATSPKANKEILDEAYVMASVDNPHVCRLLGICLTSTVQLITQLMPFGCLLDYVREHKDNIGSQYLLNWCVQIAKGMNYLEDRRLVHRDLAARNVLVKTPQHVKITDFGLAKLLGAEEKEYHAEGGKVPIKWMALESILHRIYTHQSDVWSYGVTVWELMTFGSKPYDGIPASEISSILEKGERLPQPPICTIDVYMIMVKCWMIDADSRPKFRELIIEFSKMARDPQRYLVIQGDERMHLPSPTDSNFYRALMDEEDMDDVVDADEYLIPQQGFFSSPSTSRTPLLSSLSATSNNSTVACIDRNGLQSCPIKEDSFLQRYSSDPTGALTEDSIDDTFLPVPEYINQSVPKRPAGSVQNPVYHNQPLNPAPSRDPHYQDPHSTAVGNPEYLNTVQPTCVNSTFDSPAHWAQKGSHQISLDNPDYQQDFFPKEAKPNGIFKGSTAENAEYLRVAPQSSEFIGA

On to `C=CC(=O)Nc1ccc(C(=O)Nc2cccc(Br)c2)c(O)c1`, for which the inhibition in test [1] was 76%; in test [2], 91.3%; in test [3] it was 88.2%; in test [4], 89.9%.
Regarding `C=CC(=O)Nc1ccc(C(=O)Nc2cccc(C(=O)N3CCCC3)c2)c(O)c1`, the inhibition in test [1] worked out at 26%; in test [2], 91%; in test [3], 84.2%; in test [4], 88.6%.
On to `C=CC(=O)Nc1ccc(C(=O)Nc2cccc(C(=O)N3CCCCC3)c2)c(O)c1`, for which the inhibition in test [1] is 75.1%; in test [2], 91.9%; in test [3] it was 88%; in test [4], 91.2%.
In test [2], `C=CC(=O)Nc1ccc(C(=O)Nc2cccc(Oc3ccccc3)c2)c(OC)c1` had an inhibition of 1.59%.
The same measure, in the same setting: the same measure for `CCC(=O)Nc1ccc(C(=O)Nc2ccc(Oc3ccccc3)cc2)c(O)c1`: 48.5%; for `CCC(=O)Nc1ccc(C(=O)Nc2cccc(C(=O)N(CC)CC)c2)c(O)c1`: 46.6%.
On to `C=CC(=O)Nc1ccc(C(=O)Nc2ccc(Oc3ccccc3)cc2)c(O)c1`, for which the inhibition in test [1] worked out at 0%; in test [2] it was 62.2%; in test [3] it was 0.8%; in test [4], 28.1%.
Consider `C=CC(=O)Nc1ccc(C(=O)Nc2cccc(Cl)c2)c(O)c1`, for which the results for the inhibition in test [2], in test [3] and in test [4] were 62.6%, 21.6% and 46.3%, respectively.
For `C=CC(=O)Nc1ccc(C(=O)Nc2cccc(C(O)c3ccccc3)c2)c(OC)c1` (configuration not stated), in test [2], the inhibition was 5.84%.
Regarding `C=CC(=O)Nc1ccc(C(=O)Nc2cccc(C(=O)N(CC)CC)c2)c(O)c1`, the inhibition in test [1] came to 14.1%; in test [2], 63.9%; in test [3], 40.4%; in test [4] it was 54.4%.
`C=CC(=O)Nc1ccc(C(=O)Nc2cccc(Oc3ccccc3)c2)c(O)c1`: the inhibition in test [1] came out at 18.8%; in test [2] it was 91.2%; in test [3], 86.6%; in test [4], 89.3%.
Turning to `C=CC(=O)Nc1ccc(O)c(C(=O)Nc2cccc(Br)c2)c1`, the inhibition in test [1] turned out to be 52.9%; in test [2], 93%; in test [3], 89.5%; in test [4] it was 90.6%.
`C=CC(=O)Nc1ccc(C(=O)Nc2cccc(C(O)c3ccccc3)c2)c(O)c1` (configuration not stated): the inhibition in test [1] worked out at 49.3%; in test [2], 93.5%; in test [3], 84.8%; in test [4], 91.7%.
`C=CC(=O)Nc1ccc(O)c(C(=O)Nc2cccc(Cl)c2)c1`: the inhibition was 73.1% in test [2], 23.3% in test [3] and 38.3% in test [4].
